Assay results taken from patent publication US20190256819A1, “PROCESS FOR IMPROVING THE DISSOLUTION BEHAVIOUR OF COMPONENTS IN AQUEOUS SOLUTIONS” (Merck Patent GmbH, priority 2016, published 2019).

Experiment: Measurement of dissolution enthalpy by solution calorimetry (TAM IV Microcalorimeter), relative temperature as a function of time
Type: physicochemical
Conditions: 250 mg sample in 100 mL water, 25° C., stirring at 500 rpm, ampoule broken; FIGS. 1-4
Protocol: The TAM IV Microcalorimeter was used to detect temperature changes of solutions with an accuracy of 0.001 K, which evolves from the dissolution enthalpy of the substances being tested.
Different formulations of amino acids are placed in an ampoule, surrounded by aqueous solvent. After the ampoule has been ruptured, the temperature change is analyzed.
Experimental Setup: • 250 mg of each sample were filled into a 1 mL crushing ampoule at ambient conditions without any pre-treatment. • The ampoules were closed with a silicone stopper and wax and inserted into the stirrer of the solution calorimeter and immersed into 100 mL water. • The system was then equilibrated at 25° C. while stirring at 500 rpm before the ampoule was broken. • Calibrations with a heat pulse of 2.5 J at a power of 250 mW were performed before and after the break. • For data evaluation, the slope of the baseline before breaking the sample was set to zero by differentiation of the curve, shift to zero and re-integration.
For spray dried multicomponent amino acids the enthalpy of solution measurement have been carried out on a special ampule calorimeter equipped with an isothermal shell. In the course of the calorimetry measurement, the stability of the temperature-control system was maintained constant to within 10^−4K. All experiments were performed three times and were reproducible within 5%.

| SMILES | Relative temperature as a function of time on dissolution (enthalpy of solution) |
| --- | --- |
| CC(C)C[C@H](N)C(=O)O [L-leucine] | steady decrease in the temperature |
| O=C(O)[C@@H]1CCCN1 [L-proline] | strong increase in the temperature is observed followed by a continous decrease |
